Test results published in patent US8207402B2, “Nucleotide sequences encoding enzymes in biosynthesis of dihydroartemisinic acid” (National Research Council of Canada, priority 2006, dated 2012).

Experiments:
[1] = molecular target: T1, recombinant AaALDH1 (Artemisia annua, UniProt C5I9X1); assay: Characterization of purified recombinant AaALDH1 (kinetic parameters, substrate specificity); type: biochemical; details: for substrate for the recombinant AaALDH1: optimum assay conditions, substrate concentration at 10 times the estimated Km; for Km / Vmax: purified recombinant AaALDH1, 50 mM Tris-HCl buffer, pH 8.5, means of three independent experiments
T1 construct: made in house; host or cells: E. coli BL21(DE3)
T1 sequence (C5I9X1 with tags, fused parts or gaps): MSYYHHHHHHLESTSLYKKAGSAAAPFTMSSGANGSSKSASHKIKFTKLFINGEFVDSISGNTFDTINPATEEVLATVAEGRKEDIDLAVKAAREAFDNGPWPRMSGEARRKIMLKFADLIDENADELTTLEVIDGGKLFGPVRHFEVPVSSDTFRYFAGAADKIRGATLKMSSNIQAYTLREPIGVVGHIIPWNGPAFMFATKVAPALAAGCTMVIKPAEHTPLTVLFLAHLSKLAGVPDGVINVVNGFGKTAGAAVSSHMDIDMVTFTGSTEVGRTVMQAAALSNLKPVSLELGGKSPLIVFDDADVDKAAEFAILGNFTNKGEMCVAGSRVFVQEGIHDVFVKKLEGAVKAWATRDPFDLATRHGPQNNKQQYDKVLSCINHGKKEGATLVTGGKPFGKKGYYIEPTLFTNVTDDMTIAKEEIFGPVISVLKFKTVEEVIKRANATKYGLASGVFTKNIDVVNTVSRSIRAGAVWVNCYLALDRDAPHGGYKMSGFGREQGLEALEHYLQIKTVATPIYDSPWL
Experimental: Purification of Recombinant AaALDH1
Cell-free extract of recombinant AaALDH1 was prepared as described above. The cell-free extract was centrifuged at 20,000 g at 4° C. for 15 minutes to remove any remaining insoluble materials before loading onto a His-Trap FF column (Amersham Bioscience, N.J.) equilibrated with binding buffer (20 mM sodium phosphate buffer containing 500 mM NaCl and 20 mM imidazole at pH 7.5). The column was washed with 5 column volume of binding buffer and the recombinant AaALDH1 eluted with elution buffer (20 mM sodium phosphate, 500 mM NaCl, pH 7.5) containing increasing concentration of imidazole in a step-wise fashion. The eluted fractions were concentrated and desalted in centrifugal filter devices (Amicon Ultra—15) (Millipore, Mass.) following manufacturer's protocol. The purity of the recombinant AaALDH1 was checked with SDS gel stained with Rapid Stain (Biosciences, St. Louis, Mo.).
Characterization of Purified Recombinant AaALDH1
The linearity of the assay with respect to time and protein concentration was first established and the operational saturation of substrate and cofactor determined. The pH optimum was determined by the standard assay in 50 mM buffer (sodium phosphate, Tris-HCl and CHES) from pH 6.0 to 10.0 at 0.5 unit interval containing 1 mM NADP and 1.5 micrograms of the purified recombinant AaALDH1. Kinetic parameters were determined in 50 mM Tris-HCl buffer, pH 8.5 by varying the concentration of the substrates. Kinetic constants were determined by non-linear regression analysis using GraphPad software (GraphPad Software Inc. San Diego, Calif.) and the results presented are the means of three independent experiments. Substrates specificity was determined at optimum reaction conditions with substrates concentration at 10 times the estimated Km value. Substrates tested include artemisinic aldehyde, (11R)-dihydroartemisinic aldehyde, artemisinic alcohol, dihydroartemisinic alcohol, octanal, nonanal, 2-phenyl propionaldehyde, 3-cyclohexyl propionaldehyde, 2-hexen-1-al, syringaldehyde.

[2] = molecular target: T2, recombinant His-tagged AaALDH1 (Artemisia annua, UniProt C5I9X1); assay: In vitro cell-free assay of recombinant His-tagged AaALDH1, GC/MS; type: biochemical; details: E. coli cell-free extract, 1 mM NADP, pH 8.5, 30 minutes at 30° C.
T2 construct: made in house; host or cells: E. coli BL21(DE3)
T2 sequence (C5I9X1 with tags, fused parts or gaps): as above
Experimental: (§1) The plasmid pKT032 or pKT041 was introduced into E. coli strain BL21(DE3) (Novagen) using heat shock at 42° C. The GUS gene (Invitrogen) was cloned into pDEST17 to replace the ccdB gene and the construct pDEST-GUS introduced into the E. coli strain BL21(DE3) was used as a control. Transformants were grown on Luria Broth (LB) and selected on ampicillin (100 μg/mL) at 37° C. for 24 hours. A single colony containing pKT032 or pKT041 was used to inoculate 5 mL of LB liquid medium with ampicillin (LBA) and grown at 37° C. overnight with shaking. The overnight culture was used to inoculate 250 mL of LBA liquid medium and grown at 37° C. with shaking to an OD600 of 0.6 per mL followed by induction with 1 mM IPTG and grown at 30° C. overnight with shaking. Cells were pelleted at 2,000 g at 4° C. for 10 minutes. The pelleted cells were resuspended in 6 mL of lysis buffer consisting of 50 mM sodium phosphate, pH 8.0, 0.1 M NaCl, 20 mM imidazole and 1 mM phenylmethylsufonyl fluoride (PMSF). Cells were lysed with lysozyme (0.2 mg/mL of cells) on ice for 30 minutes followed by sonication on ice with 30s pulse (5×). Protein concentration was determined by Bradford assay (Bio-Rad). The AaDBR1 protein was detected by silver stain on SDS gel and confirmed by Western Blot using Anti-His antibody (Invitrogen). The AaALDH1 protein was detected by Rapid Stain (Bioscience, St. Louis, Mo.) on SDS gel. […]

[3] = tested on: Plasmodium falciparum; details: more active than artesunate; cited from earlier work
[4] = tested on: recombinant His-tagged AaDBR1; assay: In vitro cell-free assay of recombinant His-tagged AaDBR1, GC/MS; type: biochemical, Artemisia annua; details: E. coli cell-free extract, 1 mM NADPH, pH 7.5, 30 minutes at 30° C.
Experimental: as §1

| Structure (SMILES) | substrate for the recombinant AaALDH1 [1] | product formation by AaALDH1 cell-free extract (GC/MS, FIG. 11) [2] | activity relative to artesunate [3] | Km [1] | Vmax [1] | product formation by AaDBR1 cell-free extract (GC/MS, FIG. 10) [4] |
| --- | --- | --- | --- | --- | --- | --- |
| CC1=C[C@H]2[C@@H](CC1)[C@H](C)CC[C@H]2[C@@H](C)C=O [(11R)-dihydroartemisinic aldehyde] | found to be a substrate | NADP-dependent formation of dihydroartemisinic acid | – | – | – | – |
| C[C@H]1[C@H](N2CCS(=O)(=O)CC2)O[C@@H]2O[C@@]3(C)CC[C@H]4[C@H](C)CC[C@@H]1[C@@]24OO3 [Artemisone] | – | – | 10-30 fold | – | – | – |
| C=C(C=O)[C@@H]1CC[C@@H](C)[C@@H]2CCC(C)=C[C@@H]21 [artemisinic aldehyde] | found to be a substrate | – | – | 2.62 µM | 28.6 pkat/μg protein | NADPH-dependent formation of (11S)-dihydroartemisinic aldehyde as the major product |
| CC1=C[C@H]2[C@@H](CC1)[C@H](C)CC[C@H]2[C@@H](C)C(=O)O [dihydroartemisinic acid] | – | – | – | 8.79 µM | 143.8 pkat/μg protein | – |
